Data as given in patent publication US7091248B2, “Treatment of adrenocortical hypersecretion and tumor growth” (priority 2001, dated 2006).
Where “and” joins values, the source holds several entries; their conditions need not be identical. Equal values may be shown once. Entries after “also recorded” stand apart in the source; their conditions may differ. Read-outs that look alike come from different tables or passages of the source.

Legend:
normal adrenal slices [1] = experiment: Microautoradiography of irreversible binding in precision-cut normal adrenal slice culture; format: cell-based; conditions: normal human adrenal slices, 24 h; MeSO2-[14C]DDE 2.6 μM, o,p′-[14C]DDD 3.8 μM
Experimental: Normal adrenal tissue, cortex as well as apparently unaffected medulla, was obtained from a […] MEN 2 patient operated on for an ipsilateral pheochromocytoma. Another normal adrenal was obtained from a patient operated on for a renal carcinoma.
(§1) Adrenal tissue was placed in ice-cold isotonic saline solution after removal and kept on ice until embedded in 3% agarose. Precision-cut slices (200 μm) were prepared in a Krumdieck tissue slicer (Alabama Research and Development, Munford, Ala., USA) in ice-cold PBS. Slices of roughly equal size were placed in culture medium on a titanium screen holder and incubated for 24 h (after a 1 h pre-incubation).
(§2) To inhibit CYP-dependent enzyme activity in the slices, incubation wells were supplemented with the CYP11B1 (11β-hydroxylase) inhibitor metyrapone (50 μM) when applicable. To stimulate ACTH-regulated enzyme activity in the slices, the synthetic ACTH-analogue tetracosactide (11 nM) was added. The labeled and unlabeled test substances (MeSO2-DDE and o,p′-DDD) were added to the fresh incubation medium, dissolved in DMSO (not exceeding 0.5% of the total volume). Control slices were cultured in medium containing DMSO only.
Microautoradiography: Slices were incubated with MeSO2-[^14C]DDE (2.6 μM, 35 nCi/ml) or o,p′-[^14C]DDD (3.8 μM, 60 nCi/ml) for 24 h. The labeled substances were added to the medium dissolved in DMSO. […]

normal adrenal slices [2] = experiment: Phosphorautoradiography, semi-quantification of tissue-bound radioactivity in normal adrenal slices; format: cell-based, human; conditions: for inhibition of irreversible binding in zona fasciculata/reticularis in metyrapone-exposed slices: metyrapone 50 μM, 24 h of exposure, compared with slices without metyrapone; for amount of tissue-bound radioactivity, MeSO2-[14C]DDE- versus o,p′-[14C]DDD-exposed slices: normal human adrenal slices, phosphorautoradiography
Experimental: Normal adrenal tissue, cortex as well as apparently unaffected medulla, was obtained from a […] MEN 2 patient operated on for an ipsilateral pheochromocytoma. Another normal adrenal was obtained from a patient operated on for a renal carcinoma. Adrenal tissue was placed in ice-cold isotonic saline solution after removal and kept on ice until embedded in 3% agarose. Precision-cut slices (200 μm) were prepared in a Krumdieck tissue slicer (Alabama Research and Development, Munford, Ala., USA) in ice-cold PBS. Slices of roughly equal size were placed in culture medium on a titanium screen holder and incubated for 24 h (after a 1 h pre-incubation). To inhibit CYP-dependent enzyme activity in the slices, incubation wells were supplemented with the CYP11B1 (11β-hydroxylase) inhibitor metyrapone (50 μM) when applicable. To stimulate ACTH-regulated enzyme activity in the slices, the synthetic ACTH-analogue tetracosactide (11 nM) was added. The labeled and unlabeled test substances (MeSO2-DDE and o,p'-DDD) were added to the fresh incubation medium, dissolved in DMSO (not exceeding 0.5% of the total volume). Control slices were cultured in medium containing DMSO only. Phosphorautoradiography: […] The radioactivity in the labeled areas of the adrenal sections was recorded by reading the imaging plate in a Phosphoimager (BAS 1500, Fuji, Japan). For semi-quantification of the tissue-bound radioactivity, a Windows-based bio-imaging analyzer program (ImageGauge, version 3.122, Fujifilm, Japan) was used. […] The values were adjusted according to the difference in specific activity of the two compounds. In order to check the imaging plates with respect to exposure linearity, the same plate was repeatedly exposed to the same sections for 7, 14, 28, 49 and 122 days, reading and erasing the plate between each exposure. […] Intra-exposure variation was measured on three adjacent sections on the same glass-slide.

[3] = test system: adrenocortical carcinoma cells; experiment: Autoradiography of slices from a lymphnode metastasis of an aldosterone producing adrenocortical carcinoma; format: cell-based, human
Experimental: Tissue from a lymphnode metastasis of an aldosterone producing adrenocortical carcinoma was obtained from a person.
as §1
Microautoradiography: Slices were incubated with MeSO2-[^14C]DDE (2.6 μM, 35 nCi/ml) or o,p′-[^14C]DDD (3.8 μM, 60 nCi/ml) for 24 h. The labeled substances were added to the medium dissolved in DMSO. Following incubation, slices were fixed overnight in buffered formaldehyde (4%). The fixed slices were dehydrated, embedded in methacrylate, sectioned, and dipped in liquid NTB2 film emulsion, as described elsewhere (4). Autoradiograms were exposed (4° C.) for one year to enable localization of irreversible binding in metyrapone-treated slices. Autoradiograms were developed, stained, and examined as previously described (4).

[4] = test system: bilateral non-functioning adrenocortical hyperplasia; experiment: Bound radioactivity in slices from a bilateral non-functioning adrenocortical hyperplasia; format: cell-based, human
Experimental: Tissue from a bilateral non-functioning adrenocortical hyperplasia was obtained from a person.
as §1
To inhibit CYP-dependent enzyme activity in the slices, incubation wells were supplemented with the CYP11B1 (11β-hydroxylase) inhibitor metyrapone (50 μM) when applicable. […]
Phosphorautoradiography: Semi-quantification of tissue-bound radioactivity was accomplished by apposing tissue sections to imaging plates (BAS-IP MP 2040S Fuji, Japan) for 49 days. The radioactivity in the labeled areas of the adrenal sections was recorded by reading the imaging plate in a Phosphoimager (BAS 1500, Fuji, Japan). For semi-quantification of the tissue-bound radioactivity, a Windows-based bio-imaging analyzer program (ImageGauge, version 3.122, Fujifilm, Japan) was used.
In order to correlate tissue-bound radioactivity and metabolically active regions in the incubated slices, the labeled areas of the images were marked selectively at 1 pixel resolution (1 pixel=100 μm). […]

adrenal slices = experiment: Steroid hormone secretion from adrenal slices into culture medium (HPLC); format: cell-based, human; conditions: 25 μM
Experimental: as §1, §2
Cortisol, 11-deoxycortisol, corticosterone, 11-deoxycorticosterone, aldosterone, androstenedione and 17-OH-progesterone concentrations in the medium were measured with HPLC using UV detection (241 nm), as described previously (4). The steroid products were separated using a linear gradient of 18–80% acetonitrile (1 ml/min), obtained by diluting acetonitrile/tetrahydrofuran (90/10 vol %) with methanol/water (40/60 vol %), for 32 min. The amounts of steroids were expressed as nmol/slice. The detection level of cortisol/corticosterone was 5 pmol/ml medium. To adjust for differences in slice size, the steroids were expressed as a percentage of the amount of cortisol from the same slice.

mouse adrenal slices = conditions: cited from earlier work; for irreversible binding in mouse adrenal cortex slices: ex vivo slice culture
rat adrenal slices = conditions: ex vivo slice culture; cited from earlier work
[5] = test system: cells from the human adrenal cortex; conditions: homogenate incubations, read-out: apparent Km-value; cited from earlier work
[6] = test system: mouse adrenal zona fasciculata cells; conditions: cited from earlier work
CYP 11B1 [7] = biological target: T1, CYP 11B1 (Homo sapiens, UniProt P15538); parameters: endogenous in cells; host or cells: H295R human adrenocortical carcinoma cell line; conditions: 10 μM; H295R cells; cited from earlier work
T1 sequence (P15538 25-503): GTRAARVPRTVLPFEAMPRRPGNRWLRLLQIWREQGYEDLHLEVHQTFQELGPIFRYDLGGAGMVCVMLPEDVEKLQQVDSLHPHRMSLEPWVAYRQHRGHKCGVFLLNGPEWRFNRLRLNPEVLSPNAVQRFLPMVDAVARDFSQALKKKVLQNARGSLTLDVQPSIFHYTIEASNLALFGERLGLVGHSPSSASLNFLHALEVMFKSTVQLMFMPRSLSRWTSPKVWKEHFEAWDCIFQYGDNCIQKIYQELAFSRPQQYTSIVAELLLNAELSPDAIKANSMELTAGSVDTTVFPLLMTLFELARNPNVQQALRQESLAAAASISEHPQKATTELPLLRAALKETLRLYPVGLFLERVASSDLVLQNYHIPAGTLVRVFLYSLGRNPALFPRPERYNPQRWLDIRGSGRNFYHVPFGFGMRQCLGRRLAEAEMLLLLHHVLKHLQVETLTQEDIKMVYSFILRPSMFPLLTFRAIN

CYP 11B1 [8] = biological target: T1, CYP 11B1; parameters: expressed in transfected cells; host or cells: V79 hamster cells; conditions: 5 μM; V79 hamster cells transfected with human CYP11B1 DNA; cited from earlier work
adrenocortical carcinoma = conditions: cited from earlier work

| SMILES | labeling of adrenal zones in autoradiograms (irreversible binding) (normal adrenal slices [1]) | inhibition of irreversible binding in zona fasciculata/reticularis in metyrapone-exposed slices (normal adrenal slices [2]) | amount of tissue-bound radioactivity, MeSO2-[14C]DDE- versus o,p′-[14C]DDD-exposed slices (normal adrenal slices [2]) | binding to adrenocortical carcinoma cells [3] | cortisol or corticosterone secretion compared with control slices (adrenal slices) | effect on steroid secretion compared with control (adrenal slices) | irreversible binding in mouse adrenal cortex slices (mouse adrenal slices) | irreversible binding in rat adrenal slices (rat adrenal slices) | Km [5] | further results |
| --- | --- | --- | --- | --- | --- | --- | --- | --- | --- | --- |
| CS(=O)(=O)c1cc(C(=C(Cl)Cl)c2ccc(Cl)cc2)ccc1Cl [MeSO2-DDE, 1-(4-Chloro-3-methylsulphonylphenyl)-1-(4-chlorophenyl)-2,2-dichloroethene] | high and selective labeling of zona fasciculata and zona reticularis; also recorded: confined to both zona fasciculata and zona reticularis | below the detection limit | no significant difference | irreversibly bound | no significant difference | increased accumulation of 11-deoxycorticosterone, 11-deoxycortisol and androstenedione | strong irreversible binding | very weak binding | 1.4 µM | binding to adrenocortical carcinoma cells ([3]; listed as MeSO2-[^14C]DDE): selective binding; irreversible binding in nonfunctional adrenocortical hyperplasia [4]: irreversibly bound; 11-deoxycortisol in the culture medium (adrenal slices): detectable only in the culture medium of MeSO2-DDE-exposed slices; 11-deoxycorticosterone secretion to the medium (adrenal slices; compared with o,p′-DDD exposed slices and control slices): significant increase; androstenedione secretion (adrenal slices; compared with o,p′-DDD-exposed slices): increased; plasma corticosterone levels ([6]; mice, following exposure): reduced plasma corticosterone levels; irreversible binding to cellular macromolecules in vivo ([6]; mouse adrenal zona fasciculata cells): cell-specific irreversible binding; effect on CYP 11B1 enzyme activity (CYP 11B1 [7]): inhibit CYP 11B1 enzyme activity |
| CC(C)(C(=O)c1cccnc1)c1cccnc1 [metyrapone] | – | – | – | – | – | – | – | – | – | effect of metyrapone on irreversible MeSO2-[14C]DDE-binding and corticosterone secretion (mouse adrenal slices; mouse adrenal slice culture and mouse adrenal homogenate): inhibits; effect of metyrapone on irreversible protein binding and toxicity of MeSO2-DDE in the adrenal zona fasciculata ([6]; mouse, in vivo): effectively blocked; block of synthesis of cortisol from 11-deoxycortisol (CYP 11B1 [8]): 86% |
| Clc1ccc(C(c2ccccc2Cl)C(Cl)Cl)cc1 (stereo not drawn) [o,p′-DDD, 1-(2-chlorophenyl)-1-(4-chlorophenyl)-2,2-dichloroethane] | high and selective labeling of zona fasciculata and zona reticularis; also recorded: localized in a similar way | 32% | no significant difference | selective binding | no significant difference | did not produce any visible effect | negligable irreversible binding | negligable irreversible binding | 24 µM | irreversible binding in mouse adrenal cortex slices (mouse adrenal slices; listed as o,p′-[^14C]DDD): very weak; patients not cured by surgery who responded to treatment (adrenocortical carcinoma; adrenocortical carcinoma patients): 194 out of 551; side effects (adrenocortical carcinoma; patients, therapeutic doses): dose-dependent side effects in the gastrointestinal tract (nausea, vomiting and diarrhea) and CNS (dizziness and headaches); therapeutically insufficient plasma concentrations (adrenocortical carcinoma; patients): below 10 μg/ml and < 31 μM |
